Our source for the melting point values is a melting point compilation (Tetko et al.; mined from patent text by program, amines drawn as free bases though some values may be those of a salt).

One may read the melting point as the temperature, or range, at which the solid turns liquid.

Residues, ends and D or L forms follow the SMILES beside them. *: point of attachment. NHPhenethyl = c1ccc(CCN*)cc1

Take `CCOC(=O)C(=O)c1ccc(OCCCCCCCCCCCCOc2ccccc2)cc1`: the melting point is 58 to 59 °C.
With `CC(=O)OC1OC(C)C(OCc2ccccc2)C(OCc2ccccc2)C1OCc1ccccc1` (centres undefined), the melting point was 86 to 87.5 °C.
In the case of `O=[N+]([O-])c1ccc(Sc2ccc(Cl)cc2)nc1` it was 134 to 136 °C; in that of `C=CC(CC(O)C(CC1CCCCC1)NC(=O)C(Cc1c[nH]cn1)NC(=O)C(Cc1ccccc1)NC(=O)OC(C)(C)C)C(C)C` (centres undefined), 161 °C.
The result for `O=c1[nH]c2ccc(S(=O)(=O)NCCBr)cc2[nH]c1=O` reads 261 to 266 °C.
On to `COc1ccc(C(=O)c2ccccc2F)c(O)c1C`, for which the melting point was in the range of 118 to 120 °C.
In the case of `CCCCCCCCCCC#Cc1csc(CC(N)CO)c1` (centres undefined) it was 85 to 135 °C; in that of `COc1cc(NC(C)=O)c2c3c(c4ccccc4nc13)C=CN2`, 128 to 132 °C; in that of `CN(C)C(=O)COC(=O)c1ccc(Cl)cc1OCC(=O)N(C)C`, 140 to 141 °C.
The result for `CC(C)(O)C1CCN(Cc2ccc(COc3cccc4c3CN(C3CCC(=O)NC3=O)C4=O)cc2)CC1` (centres undefined) reads 160 to 162 °C; that for `O=c1[nH]c(-c2ccc(CCN3CCN(c4cccc5cc(F)ccc45)CC3)cc2)cs1`, 228 to 270 °C; that for `CCOC(=O)c1ccc(OC)c(OCc2nc(C)c(C)nc2C)c1`, 130 °C.
The result for `O=c1nc(-c2ccc3c(c2)OCCO3)c2cc3c(cc2[nH]1)OCO3` reads greater than 300 °C; that for `COCC(=O)NS(=O)(=O)c1cccc(-c2cccc(-c3cc(-c4ccc(C(F)(F)F)cc4)cc(C)n3)n2)c1`, 188 °C.
For the molecule `CCOC(=O)c1ncn2c1CN=C(c1ccccc1F)c1cc(I)ccc1-2`, the melting point is 200 to 202 °C.
In the case of `CCN(C)C(=O)NC(=N)SC` it was 74 to 76 °C.
Turning to `Cc1nc2ccc(Oc3ncccc3C(=O)NCc3ccc(C(C)(C)O)cc3)cc2s1`, the melting point lay within 131 to 133 °C.
In the case of `N#Cc1c(Cl)c(Cl)n(CC#CI)c1-c1ccc(Cl)c(Cl)c1` it was 115 to 116 °C.
The result for `COc1cccc(C(Cn2ccnc2)=[N+](C)[O-])c1` reads 87 to 90 °C; that for `O=C1c2ccccc2CN1C1CCN(c2ccc(C(O)c3ccccc3)cc2)CC1` (centres undefined), 211 to 214 °C.
The result for `C=CCOc1cc(NC(=O)OCC)c(F)cc1Br` reads 66 to 68 °C.
`CCCCC12CCC3c4ccc(OC)cc4CCC3C1CCC2O` (centres undefined) displayed a melting point of 123 to 125 °C.
Regarding `CN1CCc2cc(Cl)c(NC=O)cc2[C@@H](c2ccccc2)C1`, the melting point fell in the range of 135 to 136 °C.
In the case of `CCCCCCCCCCCCCC(=O)c1c(O)cc(C)c(O)c1CCC` it was 62 °C; in that of `O=C1N(CCCCCl)CCN1C1CCCCC1`, 30 to 35 °C.
In the case of `O=C(O)C(O)CCCCCc1ccc(Cl)cc1` (centres undefined) it was 78 to 81 °C.
The result for `CCCc1cn2ccccc2c1C(=O)c1ccc(O)cc1` reads 210 to 214 °C; that for `C/C(=C\c1ccc(C(=O)N2CCOCC2)cc1)c1ccc2c(c1)C(C)(C)CCC2(C)C`, 143 to 144 °C; that for `CS(=O)(=O)c1ccc(C(CC2CCCC2)C(=O)Nc2ncc(C(=O)O)s2)cc1` (centres undefined), 172 to 176 °C.
`CC(C)CN(CC(C)C)S(=O)(=O)N[C@@H](Cc1ccc(Oc2nccc3cnccc23)cc1)C(=O)O` showed a melting point of 88 °C.
The result for `Nc1cc2c(cc1Br)-c1cc(Br)c(N)cc1S2(=O)=O` reads greater than 355 °C.
For `O=C(/C=C/c1c[nH]c2ccc(O)cc12)c1ccncc1`, the melting point lay in the range of 262 to 268 °C.
For the molecule `COc1cc(Nc2c(C#N)cnc3cc(-c4ccc(CNCCS(C)(=O)=O)cc4)ccc23)c(Cl)cc1Cl`, the melting point was 245 to 246 °C.
`CCOc1ccc(C2=NN(C(=O)c3cccc([N+](=O)[O-])c3)CCC2)cc1OCC`: the melting point lay within 119 to 120 °C.
In the case of `CC(CO)(CO)Nc1nc(SCc2cccc(F)c2F)nc2nc(N)cnc12` it was 220 to 227 °C.
The result for `CCCCOc1nc(N)c2[nH]c(=O)n(CCCNCc3cccc(C(=O)OC)c3)c2n1` reads 214 to 218 °C; that for `CCCN(CCC)CCCOc1ccc(S(=O)(=O)c2c(C)cn3ccccc23)cc1`, 107 to 108 °C; that for `O=C(Nc1ccc(Oc2ccccc2)cc1)N1CCN(c2ncnc3cc([N+](=O)[O-])ccc23)CC1`, 146 to 148 °C.
The result for `Cc1ccccc1CC(C(=O)Nc1cnc(Br)cn1)c1ccc(S(C)(=O)=O)cc1` (centres undefined) reads 194 to 195 °C; that for `Nc1nc2c([nH]c(=S)n2Cc2cccs2)c(=O)[nH]1`, greater than 280 °C; that for `CCCCC(Cc1ccc(OCc2ccccc2)cc1)(C(=O)OCC)C(=O)OCC`, 73 °C.
The molecule `CCOCCn1cc2c(C3C(=O)Nc4ccc(Cl)cc43)nc(NCc3cccnc3)nc2n1` (centres undefined) yielded a melting point of 294 to 296 °C.
The result for `O=S(=O)(CC=Cc1ccccc1)CCCO` reads 86 °C; that for `Cc1ccc(S(=O)(=O)N2CC3=C(C2)C(Cc2ccccc2)NCC3)cc1` (centres undefined), 196 °C.
In the case of `COC(=O)C1=C(C)NC(C)=C(C(=O)OC(C)(C)C)C1c1cccc(N)c1` (centres undefined) it was 85 to 90 °C; in that of `CC[C@H](C)[C@H](NC(=O)[C@@H](N)CS)C(=O)NCCc1ccccc1` (H-Cys-Ile-NHPhenethyl), 156 to 159 °C; in that of `Clc1ccc(COC(CCCn2ccnc2)c2ccc(Cl)cc2Cl)c(Cl)c1` (centres undefined), 108 °C.
The result for `CC(=O)OCC(=O)C1(O)C(C)CC2C3CCC4=CC(=O)CCC4(C)C3=CCC21C` (centres undefined) reads 197 to 201 °C; that for `CN(Cc1cccnc1)C(=N)NC#N`, 141 to 143 °C; that for `CCCCCCCCCCCCCCOc1ccc(C(=O)C(Br)c2ccc([N+](=O)[O-])cc2)cc1` (centres undefined), 55 to 56 °C.
With `CCOC(=O)c1[nH]c2ccccc2c1CN(Cc1cc(C(F)(F)F)cc(C(F)(F)F)c1)c1nnn(C)n1`, the melting point came to 83 °C.
The molecule `CCCCCCCCCCCCCCCCSCCO` displayed a melting point of 50 °C.
In the case of `CC1Cc2cc(F)ccc2C1=Cc1ccc(S(C)(=O)=O)cc1` (centres undefined) it was 177 °C; in that of `O=C(CS(=O)c1ccc(Cl)cc1)c1ccccc1` (centres undefined), 129 to 130 °C; in that of `Oc1cc(Br)cc(I)c1`, 83 to 84 °C.
In the case of `COc1ccc2c(c1)c(-c1cc3c(C(=O)NC(C)(C)CO)ccnc3[nH]1)cn2C`, the melting point is 210 to 212 °C.
The result for `CC(=NO)c1ccc2c(c1O)OC(CO)CO2` (centres undefined) reads 162 °C; that for `O=C(O)c1cc(=O)cc(-c2cccc3ccccc23)o1`, 248 to 249 °C.
The molecule `CCCc1ccc(NC(=O)c2cccnc2NCc2ccc(=O)[nH]c2)cc1C(F)(F)F` showed a melting point of 220 to 224 °C.
The result for `NC(=O)N/N=C(/C(=O)O)c1ccc(OCCOc2ccc3ccccc3c2)cc1` reads 204 °C; that for `CCOC(=O)c1c(C(F)(F)F)nc(C(F)(F)F)c(C(=O)OCC)c1Cl`, 76 to 77 °C; that for `CC(C)(C)OC(=O)N[C@H]1CCCC[C@@H]1O`, 103 to 105 °C.
In the case of `Cc1cccc(C)c1Oc1ccc2ccc(N)nc2n1` it was 218 °C; in that of `Clc1cccc2c(C3CCN(CCCOc4cccc5[nH]ccc45)CC3)c[nH]c12`, 178 to 182 °C; in that of `O=c1[nH]c2cc(Cl)ccc2c(=O)n1S(=O)(=O)c1ccc(Cl)cc1`, 286 to 287 °C.
Regarding `C#CCOc1noc2c1CN(C(=O)OC(C)(C)C)CC2`, the melting point was in the range of 107 to 108 °C.
Molecule `CC(C)C(NS(=O)(=O)c1ccccc1)C(=O)NOCc1ccccc1` (centres undefined) yielded a melting point of 163 to 165 °C.
In the case of `CCCCCCCCNC(=O)Nc1sc(C(=O)OC(C)CCCCCC)c(C)c1C(=O)OC(C)(C)C` (centres undefined) it was 92 to 94 °C.
In turn, `COC(=O)[C@]1(OS(C)(=O)=O)C[C@H](CC(C)C)[C@@H](O)[C@H](OC(=O)c2ccccc2)C1` showed a melting point of 161 to 162 °C.
The result for `COc1ncccc1OCC(O)CNC(C)C` (centres undefined) reads 50 to 65 °C.
Molecule `CCCCc1nc2c(N)nc3ccccc3c2n1CCCCCS(C)(=O)=O` had a melting point of 173 to 175 °C.
The molecule `CCOC(=O)N1CCOC(CN2C(=O)c3ccccc3C2=O)C1` (centres undefined) gave a melting point of 113 to 115 °C.
The result for `CS(=O)(=O)N1CCC(Nc2ncc3cc(Cc4ccccn4)c(=O)n(C4CCCC4)c3n2)CC1` reads 220 to 223 °C; that for `FC(F)(F)c1ccccc1-c1nc(-c2ccccc2Cl)nn1CCCl`, 66 to 68 °C; that for `COc1c(Cl)ccc(-c2nc(C(=O)NOC3CCCCO3)c(Cl)c(N)c2F)c1F` (centres undefined), 177 to 180 °C.
The result for `Cc1cccc(NC(=O)NCC(=O)N(CC(=O)NC(C)(C)C)c2ccccc2)c1` reads 214 °C; that for `CC(=O)CCC(=O)C1=Cc2ccccc2C1`, 85 °C; that for `COc1ccc(C2CC(O)CCC2[N+](=O)[O-])cc1OC` (centres undefined), 126 to 127 °C.
The result for `Cc1cc(N2C=C3C(c4ccccc4)=C(OCc4ncn(C)n4)NN3C=N2)no1` reads 194 to 196 °C; that for `Cc1cc(CCCCCOc2ccc(C3=NCCO3)cc2C(=O)O)on1`, 170 to 171 °C.
Consider `Cc1cc2c(cc1F)N(C(=O)Nc1cccnc1)CC2`, for which the melting point lay in the range of 203 to 205 °C.
In the case of `COc1cc(Cc2cnc(N)nc2N)cc2c1NCCC2C` (centres undefined) it was 221 to 223 °C; in that of `C=CC(=O)Nc1ccc2ncnc(Nc3cccc(C)c3)c2c1`, 247 to 248 °C.
Molecule `COc1ccc(OC)c(CC(=O)CN2N=C(c3ccc(Cl)cc3)c3ccccc3-n3c(C)nnc32)c1` returned a melting point of 217 to 218 °C.
In the case of `Oc1cc2c3ccc(O)c(O)c3n(CCCc3ccccc3)c2cc1O` it was 246 to 252 °C; in that of `COc1ccc(/C=C/C(=O)Nc2ccc(Br)cc2C(=O)O)cc1OC`, 210 to 213 °C; in that of `CCOC(=O)CCc1ccc(O)c(OCc2ccccc2)c1`, 60 to 61 °C.
For the molecule `COC(=O)COc1ccc(C)c2c1c1c(n2Cc2ccccc2)CCCC1C(N)=O` (centres undefined), the melting point turned out to be 209 °C.
In the case of `COc1ccc(C=C(NC(=O)c2ccccc2)C(=O)O)cc1OC` it was 196 to 198 °C.
